Data: the NIST ThermoML archive (doi:10.1016/j.fluid.2011.12.029)

Conditions: Liquid, Vibrating tube method

CCCC[n+]1ccccc1.F[B-](F)(F)F [1-butylpyridinium tetrafluoroborate]
Conditions | mass density [kg/m3]
283.15 K, 100 kPa | 1225.36
283.15 K, 5000 kPa | 1227.5
283.15 K, 10000 kPa | 1229.65
283.15 K, 15000 kPa | 1231.84
283.15 K, 20000 kPa | 1233.82
283.15 K, 25000 kPa | 1235.92
283.15 K, 30000 kPa | 1237.85
283.15 K, 35000 kPa | 1239.79
283.15 K, 40000 kPa | 1241.64
283.15 K, 45000 kPa | 1243.52
283.15 K, 50000 kPa | 1245.28
283.15 K, 55000 kPa | 1247
283.15 K, 60000 kPa | 1248.71
283.15 K, 65000 kPa | 1250.41
288.15 K, 100 kPa | 1221.64
288.15 K, 5000 kPa | 1223.77
288.15 K, 10000 kPa | 1225.95
288.15 K, 15000 kPa | 1228.23
288.15 K, 20000 kPa | 1230.2
288.15 K, 25000 kPa | 1232.3
288.15 K, 30000 kPa | 1234.24
288.15 K, 35000 kPa | 1236.23
288.15 K, 40000 kPa | 1238.24
288.15 K, 45000 kPa | 1240.13
288.15 K, 50000 kPa | 1241.78
288.15 K, 55000 kPa | 1243.6
288.15 K, 60000 kPa | 1245.23
288.15 K, 65000 kPa | 1247.03
293.15 K, 100 kPa | 1218.02
293.15 K, 5000 kPa | 1220.21
293.15 K, 10000 kPa | 1222.35
293.15 K, 15000 kPa | 1224.51
293.15 K, 20000 kPa | 1226.68
293.15 K, 25000 kPa | 1228.73
293.15 K, 30000 kPa | 1230.74
293.15 K, 35000 kPa | 1232.84
293.15 K, 40000 kPa | 1234.73
293.15 K, 45000 kPa | 1236.53
293.15 K, 50000 kPa | 1238.41
293.15 K, 55000 kPa | 1240.31
293.15 K, 60000 kPa | 1241.96
293.15 K, 65000 kPa | 1243.85
298.15 K, 100 kPa | 1214.34
298.15 K, 5000 kPa | 1216.62
298.15 K, 10000 kPa | 1218.93
298.15 K, 15000 kPa | 1221.01
298.15 K, 20000 kPa | 1223.33
298.15 K, 25000 kPa | 1225.43
298.15 K, 30000 kPa | 1227.48
298.15 K, 35000 kPa | 1229.43
298.15 K, 40000 kPa | 1231.45
298.15 K, 45000 kPa | 1233.36
298.15 K, 50000 kPa | 1235.32
298.15 K, 55000 kPa | 1237.1
298.15 K, 60000 kPa | 1238.81
298.15 K, 65000 kPa | 1240.44
303.15 K, 100 kPa | 1210.91
303.15 K, 5000 kPa | 1213.26
303.15 K, 10000 kPa | 1215.59
303.15 K, 15000 kPa | 1217.74
303.15 K, 20000 kPa | 1219.92
303.15 K, 25000 kPa | 1222.02
303.15 K, 30000 kPa | 1224.11
303.15 K, 35000 kPa | 1226.12
303.15 K, 40000 kPa | 1228.08
303.15 K, 45000 kPa | 1229.97
303.15 K, 50000 kPa | 1231.94
303.15 K, 55000 kPa | 1233.82
303.15 K, 60000 kPa | 1235.58
303.15 K, 65000 kPa | 1237.3
308.15 K, 100 kPa | 1207.32
308.15 K, 5000 kPa | 1209.57
308.15 K, 10000 kPa | 1211.82
308.15 K, 15000 kPa | 1214.09
308.15 K, 20000 kPa | 1216.23
308.15 K, 25000 kPa | 1218.48
308.15 K, 30000 kPa | 1220.54
308.15 K, 35000 kPa | 1222.62
308.15 K, 40000 kPa | 1224.5
308.15 K, 45000 kPa | 1226.48
308.15 K, 50000 kPa | 1228.36
308.15 K, 55000 kPa | 1230.34
308.15 K, 60000 kPa | 1232.17
308.15 K, 65000 kPa | 1234.06
313.15 K, 100 kPa | 1203.87
313.15 K, 5000 kPa | 1206.23
313.15 K, 10000 kPa | 1208.56
313.15 K, 15000 kPa | 1210.88
313.15 K, 20000 kPa | 1213.11
313.15 K, 25000 kPa | 1215.28
313.15 K, 30000 kPa | 1217.47
313.15 K, 35000 kPa | 1219.51
313.15 K, 40000 kPa | 1221.56
313.15 K, 45000 kPa | 1223.48
313.15 K, 50000 kPa | 1225.54
313.15 K, 55000 kPa | 1227.32
313.15 K, 60000 kPa | 1229.18
313.15 K, 65000 kPa | 1231.01
318.15 K, 100 kPa | 1200.36
318.15 K, 5000 kPa | 1202.66
318.15 K, 10000 kPa | 1205.15
318.15 K, 15000 kPa | 1207.31
318.15 K, 20000 kPa | 1209.58
318.15 K, 25000 kPa | 1211.7
318.15 K, 30000 kPa | 1213.85
318.15 K, 35000 kPa | 1216.03
318.15 K, 40000 kPa | 1218.05
318.15 K, 45000 kPa | 1220.04
318.15 K, 50000 kPa | 1222.02
318.15 K, 55000 kPa | 1223.9
318.15 K, 60000 kPa | 1225.83
318.15 K, 65000 kPa | 1227.74
323.15 K, 100 kPa | 1196.96
323.15 K, 5000 kPa | 1199.29
323.15 K, 10000 kPa | 1201.77
323.15 K, 15000 kPa | 1204.12
323.15 K, 20000 kPa | 1206.47
323.15 K, 25000 kPa | 1208.68
323.15 K, 30000 kPa | 1210.86
323.15 K, 35000 kPa | 1212.95
323.15 K, 40000 kPa | 1215.03
323.15 K, 45000 kPa | 1217
323.15 K, 50000 kPa | 1218.98
323.15 K, 55000 kPa | 1220.89
323.15 K, 60000 kPa | 1222.84
323.15 K, 65000 kPa | 1224.65
328.15 K, 100 kPa | 1193.36
328.15 K, 5000 kPa | 1195.72
328.15 K, 10000 kPa | 1198.11
328.15 K, 15000 kPa | 1200.54
328.15 K, 20000 kPa | 1202.82
328.15 K, 25000 kPa | 1205.08
328.15 K, 30000 kPa | 1207.36
328.15 K, 35000 kPa | 1209.57
328.15 K, 40000 kPa | 1211.63
328.15 K, 45000 kPa | 1213.66
328.15 K, 50000 kPa | 1215.6
328.15 K, 55000 kPa | 1217.56
328.15 K, 60000 kPa | 1219.5
328.15 K, 65000 kPa | 1221.56
333.15 K, 100 kPa | 1190.07
333.15 K, 5000 kPa | 1192.59
333.15 K, 10000 kPa | 1195
333.15 K, 15000 kPa | 1197.4
333.15 K, 20000 kPa | 1199.91
333.15 K, 25000 kPa | 1202.04
333.15 K, 30000 kPa | 1204.36
333.15 K, 35000 kPa | 1206.49
333.15 K, 40000 kPa | 1208.69
333.15 K, 45000 kPa | 1210.67
333.15 K, 50000 kPa | 1212.88
333.15 K, 55000 kPa | 1214.74
333.15 K, 60000 kPa | 1216.56
333.15 K, 65000 kPa | 1218.57
